From patent US12624003B2, “Carboxylic acid containing indanyl compounds for the treatment of neurodegenerative diseases” (Celgene Corporation, priority 2020, dated 2026) come the findings set out here.

The test addresses T1, S1P5 (Homo sapiens, UniProt Q9H228).
T1 construct: expressed in transfected cells; host or cells: CHO cells (membranes)
Kind of test: [35S]-GTPγS functional binding assay on CHO-S1P5 membranes. The format is biochemical. The settings on record: membranes of CHO cells expressing recombinant S1P5 receptors; measure of S1P5 agonism. The procedure: CHO cells expressing recombinant S1P5 receptors were cultured in 500 cm^2 culture trays and, once confluent, rinsed and detached with cell-lifting buffer (10 mM HEPES, 154 mM NaCl, 6.85 mM EDTA, pH 7.4). Cells were then pelleted by centrifugation, resuspended, and homogenized in membrane preparation buffer (10 mM HEPES and 10 mM EDTA, pH 7.4) using a Polytron PT 1200E homogenizer (Kinematica, Luzern, Switzerland). Cellular proteins were pelleted by centrifugation at 48,000×g at 4° C. for 30 minutes. The resulting supernatant was discarded, and the pellet was re-suspended again in membrane preparation buffer, homogenized for a second time, and then centrifuged again as described above. The final cellular protein pellet was suspended in ice cold resuspension buffer (10 mM HEPES and 0.1 mM EDTA, pH 7.4), divided into aliquots, and stored at −80° C. until use.
Functional binding assays for [^35S]-GTPγS were performed in 96-well non-binding surface plates with a final volume of 200 μL. The test compounds were serially diluted in DMSO and added to assay plates using a Tecan D300E digital printer with a total volume of 0.4 μL. The control sphingosine-1-phosphate (S1P) was prepared separately by preparing a 400 μM stock solution from a 100 nmol pellet of SIP in 10 mM Na2CO3 with 2% s-cyclodextrin. The serial dilution of S1P was done using complete assay buffer (20 mM HEPES, 10 mM MgCl2, 100 mM NaCl, 1 mM EDTA, 0.1% fatty acid free bovine serum albumin (BSA), and 30 μg/mL saponin, pH 7.4) and transferred to wells already containing 0.4 μL DMSO. All the wells were then loaded to a total volume of 40 μL of complete assay buffer, except the non-specific binding (NSB) wells. For NSB wells, 40 μL/well of 50 μM GTPγS (Sigma Aldrich, cat #G8634, St. Louis, MO) was added to wells containing 0.4 μL of DMSO. The assay was started by the addition of 120 μL/well of CHO-S1P receptor membrane solution containing 40 μg/mL of membrane protein, 16.67 μM guanosine diphosphate (GDP; Sigma Aldrich, cat #G7127, St. Louis, MO), and 2.5 mg/mL of WGA PVT SPA beads in complete buffer. Assay plates were then sealed and incubated at room temperature with gentle agitation for 30 minutes. Next, 40 μL/well of 1 nM of [^35S]-GTPγS (PerkinElmer, cat #NEG030X250UC, Waltham, MA) in basic assay buffer (20 mM HEPES, 10 mM MgCl2, 100 mM NaCl, and 1 mM EDTA, pH 7.4) was added to the assay plates to yield a final concentration of […] and the plates were further incubated for 40 minutes at room temperature with gentle agitation. The assay was terminated by centrifugation of the plates at 1000 rpm for 3 minutes using an Eppendorf 5810R centrifuge (Eppendorf, Hamburg, Germany) and G protein bound radioactivity was quantitated using a MicroBeta2 microplate scintillation counter (PerkinElmer, Waltham, MA). As G protein bound radioactivity directly correlates to receptor activation and coupling to the G protein, this assay is a measure of S1P5 agonism.
On the technique in general: GTPγS resists hydrolysis and so accumulates on activated G proteins.

Where only a bound is given, the exact number is not on record here.

T1 sequence (Q9H228 whole entry, species assumed): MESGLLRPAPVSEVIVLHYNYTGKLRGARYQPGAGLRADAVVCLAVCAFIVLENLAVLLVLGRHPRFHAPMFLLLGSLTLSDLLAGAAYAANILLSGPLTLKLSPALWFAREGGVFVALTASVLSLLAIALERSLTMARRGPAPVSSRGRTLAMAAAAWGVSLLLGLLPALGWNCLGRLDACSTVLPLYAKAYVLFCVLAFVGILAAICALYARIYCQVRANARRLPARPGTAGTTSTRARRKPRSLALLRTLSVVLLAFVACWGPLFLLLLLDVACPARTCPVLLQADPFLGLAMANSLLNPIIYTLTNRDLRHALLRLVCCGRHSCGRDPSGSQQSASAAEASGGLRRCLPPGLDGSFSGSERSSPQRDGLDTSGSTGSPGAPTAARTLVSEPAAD

One may read the EC50 as the concentration at which the effect is half-maximal. For `O=C(O)[C@@H]1[C@@H]2CN(C3CCc4cc(C#Cc5cccc(F)c5)ccc43)C[C@@H]21` (stereo partly drawn) [Compound 17, (1R,5S,6s)-3-(5-((3-fluorophenyl)ethynyl)-2,3-dihydro-1H-inden-1-yl)-3-azabicyclo[3.1.0]-hexane-6-carboxylic acid], the EC50 lay within 0.01 to 0.1 µM.

`O=C(O)C1CC2(C1)CN(C1CCc3cc(C#Cc4c(Cl)cccc4Cl)ccc31)C2` (stereo not drawn) [Compound 21, 2-(5-((2,6-dichlorophenyl)ethynyl)-2,3-dihydro-1H-inden-1-yl)-2-azaspiro[3.3]heptane-6-carboxylic acid]: the EC50 fell in the range of 0.01 to 0.1 µM.

`O=C(O)C1CC2(C1)CN(C1CCc3cc(CCc4c(Cl)cccc4Cl)ccc31)C2` (stereo not drawn) [Compound 29, 2-(5-(2,6-dichlorophenethyl)-2,3-dihydro-1H-inden-1-yl)-2-azaspiro[3.3]heptane-6-carboxylic acid]: the half-maximal effective concentration (EC50) is 0.01 to 0.1 µM.

As for `CC(C)c1ccc(-c2ccc3c(c2)CCC3N2CCC(C(=O)O)CC2)cc1Cl` (stereo not drawn) [Compound 33, 1-(5-(3-chloro-4-isopropylphenyl)-2,3-dihydro-1H-inden-1-yl)piperidine-4-carboxylic acid], the EC50 is at most 0.01 µM.

For the molecule `O=C(O)C1CCCN(C2CCc3cc(-c4ccc(C5CC5)c(Cl)c4)ccc32)C1` (stereo not drawn) [Compound 38, 1-(5-(3-chloro-4-cyclopropylphenyl)-2,3-dihydro-1H-inden-1-yl)piperidine-3-carboxylic acid], the concentration for a half-maximal effect (EC50) was in the range of 0.01 to 0.1 µM.

Take `O=C(O)C1CC2(C1)CN(C1CCc3cc(-c4ccc(C5CC5)c(Cl)c4)ccc31)C2` (stereo not drawn) [Compound 39, 2-(5-(3-chloro-4-cyclopropylphenyl)-2,3-dihydro-1H-inden-1-yl)-2-azaspiro[3.3]heptane-6-carboxylic acid]: the EC50 lay in the range of 0.01 to 0.1 µM.
